Data from patent publication US9963660B2, “Method of cleaning with enhanced bacteriostatic action using a composition of alcohol and lactate esters” (Vertec Biosolvent, Inc., priority 2015, dated 2018).

How the values were obtained:
[1] = for Viscosity: @ 25 C.
From the text: Properties of solvents are often evaluated and expressed in measured and calculated values of solubility parameters and a few other physical constants.

[2] = Peanut butter removal from coated metal mesh strips (cleaning/solvating action); details: neat solvents, 40° C., 20 minutes dip, 90 minutes drying
From the text: Peanut butter is a complex mixture of fats, carbohydrates and proteins that are emulsified in processing equipment under controlled conditions. Because of its composition that contains all the major food groups and because the product is made by controlled food processing methods, peanut butter was chosen for an initial cleaning examination. Commercially available […]® peanut butter made by Best Foods Company was used. Commercially available metal screen mesh (size 20 mesh) was cut into small (25 mm×75 mm), equal sized strips that were dipped into heated (about 50° C.) peanut butter and then drip dried in air. […] The strips were then dried under forced air at room temperature and their weights were measured periodically. After 90 minutes of drying the test results were evaluated to determine the comparative differences between the effects of the solvent compositions. Commercial grade of ethanol is typically denatured by small quantities of additives. Ethyl acetate is an approved denaturant for ethanol and it is non-toxic for food and biological related applications. In all of the examples for this invention the ethanol used was denatured by about 5% (w/w) ethyl acetate.

[3] = system: Listeria Monocytogenis ATCC 19115; assay: MiniTox bacteriostatic (MIC) test in microtiter plates; format: cell-based; details: diluted to the same extent as the blend
From the text: (§1) Methods to determine minimum inhibitory concentrations (MIC) of biocides or bacteriostatic agents that work in processing liquids to inhibit biological growth have been developed and optimized (U.S. Pat. No. 5,206,151). Typically, such MIC determinations involve (a) obtaining a known volume aliquot of the contaminated aqueous system and (b) adding thereto a known amount of an oxidation reduction indicator dye, which indicator dye is capable of reacting with dehydrogenase enzymes produced by the microbiological organisms, and also (c) adding sufficient nutrients capable of accelerating microbiological organism activity, thereby forming a reaction product between reducing enzymes and the oxidation-reduction indicator dye. Multiple aliquots of the indicator dye treated and nutrient treated, aqueous system are transferred to a microtitration plate containing multiple sample wells (d), each well containing but one of the multiple aliquots. (e) Serially diluted amounts of at least one antimicrobial agent is added to at least one column (or row) of these sample wells on the titration plate, provided that a single column (or row) is treated with only one antimicrobial agent, that at least one column (or row) is left untreated to thereby form a treated titration plate. The treated titration plate is incubated at a temperature essentially equivalent to the temperature of the contaminated aqueous system from which the aliquot was originally taken and maintained for a period of time sufficient to develop the change in the indicator dye color by the reaction of the indicator dye with reducing enzymes produced by nutrient acceleration of microbiological metabolism (f). The first change in color in dye relative to the untreated column is noted (g) to determine the minimum inhibitor concentration of antimicrobial agent that inhibits growth of microbiological organism contained in the contaminated aqueous system. Such a method is optimized under the Trademark of MiniToxTM and tests are routinely practiced and results provided by microbiological testing laboratories such as: The MicroStar Lab Ltd located at 130 Erick Street in Crystal Lake, Ill. 60014. […] This solution was kept as is at room temperature and hydrolysis of the ester continued. This solution was serially diluted with broth and media components for the MiniTox tests in microtiter plates. Two bacterial cultures Salmonella Choleraesuis ATCC 10708 and Listeria Monocytogenis ATCC 19115 were used for the studies. Bacteria of the Salmonella species are known pathogens that contaminate meat and vegetable types of food and Listeria species are known to contaminate milk and related foods.

[4] = system: Salmonella Choleraesuis ATCC 10708; assay: as above; format: cell-based; details: diluted to the same extent as the blend
From the text: as §1

CCO [Ethanol]
SPd (Disperse solubility parameter) [1]: 7.7 | SPh (hydrogen bonding parameter) [1]: 9.5 | SPo (Hildebrand solubility parameter) [1]: 13.0 | SPp (Polar solubility parameter) [1]: 4.3 | Surface Tension [1]: 22.2 mN/m | Viscosity [1]: 0.43 Cp | Percent Removal [2]: 20.4% | Bacteriostatic activity alone, diluted to the same extent [3]: does not exhibit bacteriostatic activity | Bacteriostatic activity alone, diluted to the same extent [4]: does not exhibit bacteriostatic activity

CCOC(=O)C(C)O (stereo not drawn) [Ethyl lactate]
SPh (hydrogen bonding parameter) [1]: 6.1 | Surface Tension [1]: 28.6 mN/m | Viscosity [1]: 2.41 Cp | Percent Removal [2]: 7.3% | Bacteriostatic activity alone, diluted to the same extent [3]: does not exhibit bacteriostatic activity | Bacteriostatic activity alone, diluted to the same extent [4]: does not exhibit bacteriostatic activity
